Source: US11607461B2, “Compositions and methods for genetically modifying myosin phosphatase target subunit (Mypt1) gene for lowering blood pressure” (University of Maryland, Baltimore, priority 2016, dated 2023)
Blank lines part the entries; values can stand above or below the molecule they belong to.

Tests used:
[1] = test system: First-order mesenteric arteries (MA1); test: Wire myography: relaxation to 8-Br-cGMP of α-toxin permeabilized, calcium-clamped arteries; set-up: species or system mouse; settings: for EC50: α-toxin permeabilized, pCa6
Source text: (§1) First-order mesenteric arteries (2 mm length; 200-250 μm ID) were dissected free of connective tissue in a HEPES-bicarbonate physiological saline solution containing the following concentrations (in mM): 112 NaCl, 25.7 NaHCO3, 4.9 KCl, 2.0 CaCl2, 1.2 MgSO4, 1.2 KH2PO4, 11.5 glucose, and 10 HEPES. The solution was at pH 7.4 and maintained at 37 C for experiments. Arteries were mounted on a 4-chamber wire myograph (Model 610M, Danish Myo Technology, Aarhus, Denmark). Force was continuously recorded and measured at steady state. Starting tension (IC90) was equally applied to all arteries as previously described (Reho et al., Am J Physiol Heart Circ Physiol 307: H563-573, 2014). Arteries were then primed with 2 separate dose of phenylephrine (10 μM) and allowed to equilibrate for 20 minutes in fresh, heated HEPES-bicarbonate buffer. Intact arteries were subjected to dose response to phenylephrine (α-adrenergic agonist; 1 nM-100 μM), U46619 (thromboxane mimetic; 1 nM-10 μM), and angiotensin II (1 nM-10 μM). Maximal response of MAs to depolarization was assessed with 100 mM KCl. A subset of arteries was permeabilized with α-toxin (1000 U/mL) and subjected to calcium clamp in high relaxing solution (pCa9) containing the following (in mM): 60 KMS, 5 EGTA, 0.02 CaCl2, 9.26 MgCl2, 5.2 Na2ATP, 25 creatine phosphate, and 25 BES with pH 7.1 (intracellular pH) by 1N KOH. Permeabilized arteries were subjected to dose response of calcium. Phenylephrine-induced calcium sensitization was performed under calcium clamp at a sub-maximal concentration of calcium (pCa6; 1 μM) with intracellular calcium stores depleted by preincubation of arteries with 10 μM A-23187. Vessels were activated with 10 μM phenylephrine with or without preincubation with L-NAME (100 μM). Vasorelaxation responses to the NO donor DEA/NO were assessed in intact arteries activated with a sub-maximal concentration of phenylephrine (10 μM). Dose response to 8-Br-cGMP (1 nM-100 μM) were assessed in α-toxin permeabilized, calcium-clamped (pCa6; 1 μM) arteries. Relaxation data are presented as percent of maximal force. All chemicals were purchased from Sigma-Aldrich (St Louis, Mo.).
(§2) All data are presented as means±SEM. Data were analyzed and graphed using SigmaPlot software (SYSTAT, Chicago, Ill.). mRNA and protein data and mean arterial pressures were analyzed using a one way ANOVA. Vascular function data were analyzed via One way ANOVA and a Bonferroni post-hoc test or Two way repeated measures ANOVA and a Bonferroni post-hoc test. EC50 were calculated via standard curve analysis. Significance was accepted with a p<0.05.

[2] = test system: First-order mesenteric arteries (MA1); test: Wire myography: vasorelaxation to DEA/NO of intact arteries activated with phenylephrine; set-up: species or system mouse; settings: for EC50: pre-constriction with PE 10 μM, read-out: EC50 relaxation to DEA/NO
Source text: as §1, with “Permeabilized arteries were subjected to dose response of calcium. Phenylephrine-induced calcium sensitization was performed under calcium clamp at a sub-maximal concentration of calcium (pCa6; 1 μM) with intracellular calcium stores depleted by preincubation of arteries with 10 μM A-23187. Vessels were activated with 10 μM phenylephrine with or without preincubation with L-NAME (100 μM).” left out, “Relaxation data are presented as percent of maximal force. All chemicals were purchased from Sigma-Aldrich (St Louis, Mo.).” left out
as §2, with “Significance was accepted with a p<0.05.” left out

[3] = test system: First-order mesenteric arteries (MA1); test: Wire myography: force generation, dose response to phenylephrine in intact arteries; settings: Mus musculus, read-out: EC50 force generation to PE
Source text: as §1, §2

[4] = test system: PPP1R12A (Mypt1) exon 24 flanking region; test: Surveyor nuclease assay on genomic PCR products of transfected HEK293T cells; type: cell-based, human; settings: constructs tested individually; for Surveyor nuclease products (sizes): control ~750 bp
Experimental: HEK293T cells were seeded at a density of 1×10^5 cells/well in 24-well plates. After 24 hours, while cell confluence reached approximately 80%, cells were transfected with 1µg of sgRNA-px601 vector (experimental conditions) or px601 vector (empty vector) or pIRES-EYFP vector (positive transfection control). All transfections were performed in duplicates using Lipofectamine® 3000 Reagent (Life Technologies/ThermoFisher Scientific, Waltham, Mass.) according to the manufacturer's protocol. Twenty-four hours after transfection, a volume of 0.5 mL of culture medium was added per well (reaching a total volume of 1 mL per well). Cells were harvested 72 hours after transfection; culture medium was removed, cells were trypsinized using Gibco™ TrypLE™ Express (Life Technologies/ThermoFisher Scientific), pelleted and cell pellets were stored at −20° C. The transfection efficiency was evaluated immediately prior to harvesting of cells, by inspection of HEK293T cells transfected with pIRES-EYFP vector using a Leica MZ-FLIII fluorescence microscope equipped with a GFP filter set (Leica Microscopy Systems Ltd., Heerbrugg, Switzerland).
Genomic DNA was purified from the transfected cells using PureLink™ Genomic DNA Mini Kit (Invitrogen/ThermoFisher Scientific, Waltham, Mass.) as per the manufacturer's protocol. In order to investigate if genome editing occurred, locus PCR amplifying a 754 pb-region flanking the exon 24 of PPP1R12A gene was performed using primers MYPT12AE24F 5′-[…]-3′ (SEQ ID NO:3) (intronic region 155894 bp to 155913 bp on PPP1R12A ENSG00000058272) and MYPT12AE24R 5′-[…]-3′ (SEQ ID NO:4) (intronic region 156626 bp to 156647 bp on PPP1R12A ENSG00000058272). PCR conditions were as follows: 95° C. 5 min, then 95° C. 30 s, 53° C. 45 s, 72° C. 60 s for 30 cycles, with 5 min of final extension step at 72° C. PCR products were resolved by 2% agarose gel electrophoresis. When PCR product size was shorter than the control PCR product, genome editing occurred. For PCR products that could not be separated from the control product on 2% agarose gel due to the low resolution of the gel, a surveyor nuclease assay was performed using the Surveyor® Mutation Detection Kit (Integrated DNA Technologies, Coralville, Iowa) as per manufacturer's protocol for better visualization of the edits. The Surveyor® Mutation Detection Kit uses an endonuclease that cleaves DNA with high specificity at sites of mismatches and other distortions, allowing the detection of known and unknown DNA mutations. Briefly, target DNA is amplified by PCR from both wild-type (WT) and mutated DNA, WT and mutant DNA are then hybridized to form heteroduplexes, which are subsequently cleaved by the surveyor endonuclease. When no mutation is present, only homoduplexes are formed and no endonuclease-mediated cleavage is observed.

[5] = E24 cKO MA1s, highest concentration

Molecule: Nc1nc2c(nc(Br)n2[C@@H]2O[C@@H]3COP(=O)(O)O[C@H]3[C@H]2O)c(=O)[nH]1 [8-Br-cGMP, 8-bromo-cGMP]
EC50 ([1]; CON mice): 95.2 ± 11 nM
EC50 ([1]; E24 F/+): 3 ± 2.5 nM
EC50 ([1]; E24 F/F): 6 ± 1.5 nM
maximal response to 8-Br-cGMP [1, 5]: complete relaxation

EC50 ([2]; E24 F/+ (cKO heterozygotes)): 3.3 ± 0.5 nM
EC50 ([2]; E24 F/F (cKO homozygotes)): 2.1 ± 0.5 nM
Molecule: CCN(CC)/[N+]([O-])=N/[O-].[Na+] [DEA/NO]
maximal response to DEA/NO [2, 5]: complete relaxation

EC50 ([3]; 336 h, CON+HS (high salt 4% NaCl, 2 weeks)): 1000 ± 500 nM
EC50 ([3]; CON mice): 500 ± 100 nM
EC50 ([3]; E24 F/+): 600 ± 200 nM
EC50 ([3]; E24 F/F+HS): 3000 ± 1000 nM
EC50 ([3]; E24 F/F+NS): 400 ± 200 nM
EC50 ([3]; E24 F/F): 900 ± 200 nM
Molecule: CNC[C@H](O)c1cccc(O)c1 [PE, phenylephrine]
EC50 ([3]; CON+NS (normal salt diet)): 900 ± 400 nM

B1: sgRNA5: guide RNA, target … (SEQ ID NO: 9); tested cloned in px601 SaCas9 plasmid (nucleic acid)
guide: GCAUUAUUUAUUAAUCUGGGAGUUUUAGUACUCUGGAAACAGAAUCUACUAAAACAAGGCAAAAUGCCGUGUUUAUCUCGUCAACUUGUUGGCGAGAUUUUU
genome editing in vitro (in words) [4]: effective genome editing
Surveyor nuclease products (sizes) [4]: 120/630

B2: sgRNA9: guide RNA, target … (SEQ ID NO: 13); tested cloned in px601 SaCas9 plasmid (nucleic acid)
guide: GAGAAUGCUUAUCAUUUAAGGGUUUUAGUACUCUGGAAACAGAAUCUACUAAAACAAGGCAAAAUGCCGUGUUUAUCUCGUCAACUUGUUGGCGAGAUUUUU
genome editing in vitro (in words) [4]: effective genome editing
Surveyor nuclease products (sizes) [4]: 330/420

B3: sgRNA6: guide RNA, target … (SEQ ID NO: 10); tested cloned in px601 SaCas9 plasmid (nucleic acid)
guide: GUAUCUGAAAGGUGACCGGCGUUUUAGUACUCUGGAAACAGAAUCUACUAAAACAAGGCAAAAUGCCGUGUUUAUCUCGUCAACUUGUUGGCGAGAUUUUU
genome editing in vitro (in words) [4]: effective genome editing
Surveyor nuclease products (sizes) [4]: 250/500

B4: sgRNA12: guide RNA, target … (SEQ ID NO: 16); tested cloned in px601 SaCas9 plasmid (nucleic acid)
guide: GAUACAAAGCUAUAAAGUCAGGUUUUAGUACUCUGGAAACAGAAUCUACUAAAACAAGGCAAAAUGCCGUGUUUAUCUCGUCAACUUGUUGGCGAGAUUUUU
genome editing in vitro (in words) [4]: effective genome editing
Surveyor nuclease products (sizes) [4]: 270/480

B5: sgRNA11: guide RNA, target … (SEQ ID NO: 15); tested cloned in px601 SaCas9 plasmid (nucleic acid)
guide: GUUAUGUGUAGCAUUAAUGCAGUUUUAGUACUCUGGAAACAGAAUCUACUAAAACAAGGCAAAAUGCCGUGUUUAUCUCGUCAACUUGUUGGCGAGAUUUUU
genome editing in vitro (in words) [4]: effective genome editing
Surveyor nuclease products (sizes) [4]: 320/430
